Assay results from article PMC9519446, “Discovery of an Orally Active Benzoxaborole Prodrug Effective in the Treatment of Chagas Disease in Non-human Primates” (Nature microbiology, 2022).
Where “and” joins values, the source holds several entries; their conditions need not be identical. Equal values may be shown once.

Assays:
[1] = Pharmacokinetics in rats (IV and PO); parameters: species or system rat; settings: in vivo
Experimental: Rat IV (2 mg/kg) Rat PO (10 mg/kg)
Cl (mL/h/kg) 2258 AUC0-last (hr*µg/mL) 3.34
AUC0-last (hr*µg/mL) 0.883
for AN15368 in rats. Data are presented as mean values +/- SEM; n= 3 animals.

[2] = NHP health screening: hematology (CBC); format: in vivo, rhesus macaques (Macaca mulatta)
Experimental: Under light-anesthesia/sedation, peripheral blood samples were collected from each animal prior to treatment and at 7 time points following. Blood analysis (CBC and serum chemistry assays) and physical exams to evaluate the health of the study animals were performed on each animal prior to the beginning of the study and also at three time points during the treatment protocol (see Supplementary data).

[3] = Mean of treated female rhesus macaques, blood sample of 2018-03-26/27
[4] = Treated rhesus macaques, individual animal, blood sample of 2018-03-26/27
[5] = drug-treatment phase, returned to pre-study values by the final blood draw
[6] = treated female macaques, mid-dosing bleed, Mean
[7] = treated female macaques, post-dosing bleed, Mean

Cc1c(C(=O)N[C@H](C(=O)OCC2CCOCC2)C(C)C)ccc2c1B(O)OC2 [AN15368]
AUC(0-t) ([1]; Rat IV (2 mg/kg)): 883 ng·h/mL | Cmax ([1]; Rat IV (2 mg/kg)): 1700 ± 200 ng/mL | clearance ([1]; Rat IV (2 mg/kg)): 37.6 mL/min/kg | Vd ([1]; Rat IV (2 mg/kg), read-out: Vss): 1.11 L/kg | AUC(0-t) ([1]; Rat PO (10 mg/kg)): 3340 ng·h/mL | Cmax ([1]; Rat PO (10 mg/kg)): 2100 ± 290 ng/mL | bioavailability ([1]; Rat PO (10 mg/kg)): 76.1% | Baso, Mean [2, 3]: 0.01 10^3/µL | Eos, Mean [2, 3]: 0.09056 10^3/µL | Hct, Mean [2, 3]: 42.7278% | Hgb, Mean [2, 3]: 13.2278 G/Dl | Lymp, Mean [2, 3]: 2.112 10^3/µL | Mch, Mean [2, 3]: 22.4444 Pgs | Mchc, Mean [2, 3]: 30.9611 G/Dl | Mcv, Mean [2, 3]: 72.4667 fL | Mono, Mean [2, 3]: 0.2806 10^3/µL | Mpv, Mean [2, 3]: 7.333 fL | Neut, Mean [2, 3]: 3.369 10^3/µL | Plt, Mean [2, 3]: 334.722 10^3/µL | Rbc, Mean [2, 3]: 5.902 10^6/µL | Rdw, Mean [2, 3]: 12.2111% | Wbc, Mean [2, 3]: 5.862 10^3/µL | Baso [2, 4]: 0.01 10^3/µL and 0 10^3/µL | Eos [2, 4]: 0.24 10^3/µL and 0.09 10^3/µL and 0.02 10^3/µL and 0.17 10^3/µL and 0.16 10^3/µL | Hct [2, 4]: 46.5% and 43.6% and 38.8% and 40.8% and 41.6% | Hgb [2, 4]: 14.6 G/Dl and 13 G/Dl and 11.7 G/Dl and 13.1 G/Dl | Lymp [2, 4]: 2.42 10^3/µL and 2.63 10^3/µL and 1.31 10^3/µL and 3.46 10^3/µL and 2.68 10^3/µL | Mch [2, 4]: 21.8 Pgs and 21.4 Pgs and 21.5 Pgs and 22.2 Pgs and 22.8 Pgs | Mchc [2, 4]: 31.4 G/Dl and 29.8 G/Dl and 30.2 G/Dl and 32.1 G/Dl and 31.5 G/Dl | Mcv [2, 4]: 69.6 fL and 71.6 fL and 71.5 fL and 69.4 fL and 72.5 fL | Mono [2, 4]: 0.38 10^3/µL and 0.28 10^3/µL and 0.1 10^3/µL and 0.31 10^3/µL | Mpv [2, 4]: 7.6 fL and 6.9 fL and 7.2 fL and 6.4 fL | Neut [2, 4]: 3.03 10^3/µL and 1.68 10^3/µL and 2.26 10^3/µL and 1.88 10^3/µL and 0.86 10^3/µL | Plt [2, 4]: 347 10^3/µL and 388 10^3/µL and 304 10^3/µL and 339 10^3/µL and 367 10^3/µL | Rbc [2, 4]: 6.68 10^6/µL and 6.09 10^6/µL and 5.43 10^6/µL and 5.88 10^6/µL and 5.74 10^6/µL | Rdw [2, 4]: 11.4% and 12.7% and 10.8% and 12.3% and 12.2% | Wbc [2, 4]: 6.07 10^3/µL and 4.69 10^3/µL and 3.69 10^3/µL and 5.83 10^3/µL and 3.99 10^3/µL | lymphocytes in the blood [2, 5]: mildly elevated | monocytes in the blood [2, 5]: mildly elevated | Baso [2, 6]: 0.01333 10^3/µL | Eos [2, 6]: 0.09889 10^3/µL | Hct [2, 6]: 41.4111% | Hgb [2, 6]: 13.2333 G/Dl | Lymp [2, 6]: 3.343 10^3/µL | Mch [2, 6]: 23.5333 Pgs | Mchc [2, 6]: 31.9611 G/Dl | Mcv [2, 6]: 73.75 fL | Mono [2, 6]: 0.2572 10^3/µL | Mpv [2, 6]: 7.506 fL | Neut [2, 6]: 2.007 10^3/µL | Plt [2, 6]: 319.5 10^3/µL | Rbc [2, 6]: 5.621 10^6/µL | Rdw [2, 6]: 12.4556% | Wbc [2, 6]: 5.718 10^3/µL | Baso [2, 7]: 0.01167 10^3/µL | Eos [2, 7]: 0.09 10^3/µL | Hct [2, 7]: 40.5389% | Hgb [2, 7]: 13.0722 G/Dl
